Results as given in patent US11986480B2, “Heterocyclic compound” (TOHOKU UNIVERSITY, priority 2017, dated 2024).
Where a name gives a salt, the structure may show the parent alone.

test system: EmGFP-HaloTag; assay: Test Example 1: HeLa cells stably expressing EmGFP-HaloTag, Western blot GFP/actin (Testing Method A); format: cell-based; conditions: 1 uM, 24 hours, 1 or less = degradation promoted
Procedure: Test Example 1: Evaluation Method Using Cell Stably Expressing EmGFP-HaloTag (Testing Method A)
(§1) HeLa cells stably expressing EmGFP-HaloTag were inoculated to Dulbecco's Modified Eagle Medium (DMEM) and cultured for 24 hours. Then, a test compound (specifically, compounds of Examples 1 to 7, 9 to 11, 13 to 15, 17 to 20, 24 to 27, 29, 32 to 33, 36 to 42, 44 to 46 and 56) was added thereto at the final concentration shown in Table 2, followed by incubation for 24 hours under conditions of 37° C./5% CO2. The cells were washed with PBS three times and treated with a cell lysis solution containing a proteolytic enzyme inhibitor to obtain a cell extract. The cell extract was subjected to SDS-PAGE. After the electrophoresis, GFP and actin were detected by Western blot. The ratio of the GFP/actin value of the drug-treated cells to the GFP/actin value of a control group in drug-untreated cells was regarded as an activity value. A value of 1 or less represents that degradation of EmGFP-HaloTag was promoted.

First: CC(=O)N[C@@H](CSc1nc2c(=O)[nH]c(N)nc2n1Cc1cccc(Cl)c1)C(=O)NCCOCCOCCOCCOCCOCCCCCCCl [Example 37, N^2-acetyl-S-(2-amino-9-(3-chlorobenzyl)-6-oxo-6,9-dihydro-1H-purin-8-yl)-N-(21-chloro-3,6,9,12,15-pentaoxahenicos-1-yl)-L-cysteinamide]
Second: CC(=O)N[C@@H](CSc1nc2c(=O)[nH]c(N)nc2n1Cc1cccnc1)C(=O)NCCOCCOCCOCCOCCOCCCCCCCl [Example 41, N^2-acetyl-S-(2-amino-6-oxo-9-(pyridin-3-ylmethyl)-6,9-dihydro-1H-purin-8-yl)-N-(21-chloro-3,6,9,12,15-pentaoxahenicos-1-yl)-L-cysteinamide trifluoroacetic acid salt]
The “Activity value (GFP/actin of drug-treated cells relative to drug-untreated control)” value of the first is higher: 0.7 for the first, 0.5 for the second.

First: CC(=O)N[C@@H](CSc1nc2c(=O)[nH]c(N)nc2n1Cc1ccc(S(C)(=O)=O)cc1)C(=O)NCCOCCOCCOCCOCCOCCCCCCCl [Example 39, N^2-acetyl-S-(2-amino-9-(4-(methylsulfonyl)benzyl)-6-oxo-6,9-dihydro-1H-purin-8-yl)-N-(21-chloro-3,6,9,12,15-pentaoxahenicos-1-yl)-L-cysteinamide]
Second: CC(=O)N[C@@H](CSc1nc2c(=O)[nH]c(N)nc2n1Cc1cncs1)C(=O)NCCOCCOCCOCCOCCOCCCCCCCl [Example 42, N^2-acetyl-S-(2-amino-6-oxo-9-(1,3-thiazole-5-ylmethyl)-6,9-dihydro-1H-purin-8-yl)-N-(21-chloro-3,6,9,12,15-pentaoxahenicos-1-yl)-L-cysteinamide]
The “Activity value (GFP/actin of drug-treated cells relative to drug-untreated control)” value of the first is lower: 0.7 for the first, 0.8 for the second.

Compared with CC(=O)N[C@@H](CSc1nc2c(=O)[nH]c(N)nc2n1-c1ccccc1)C(=O)NCCOCCOCCOCCOCCOCCCCCCCl [Example 40, N^2-acetyl-S-(2-amino-6-oxo-9-phenyl-6,9-dihydro-1H-purin-8-yl)-N-(21-chloro-3,6,9,12,15-pentaoxahenicos-1-yl)-L-cysteinamide], CC(=O)N[C@@H](CSc1nc2c(=O)n3cc[nH]c3nc2n1Cc1ccc(F)cc1)C(=O)NCCOCCOCCOCCOCCOCCCCCCCl [Example 44, N^2-Acetyl-N-(21-chloro-3,6,9,12,15-pentaoxahenicos-1-yl)-S-(3-(4-fluorobenzyl)-9-oxo-5,9-dihydro-3H-imidazo[1,2-a]purin-2-yl)-L-cysteinamide] is higher in “Activity value (GFP/actin of drug-treated cells relative to drug-untreated control)” value: 0.7 for the first, 0.9 for the second.

same assay, conditions: 10 uM, 24 hours, 1 or less = degradation promoted

CC(=O)N[C@@H](CSc1nc2c(N)nc(N)nc2n1Cc1ccc(F)cc1)C(=O)NCCOCCOCCOCCOCCOCCCCCCCl [Example 45, N^2-Acetyl-N-(21-chloro-3,6,9,12,15-pentaoxahenicos-1-yl)-S-(2,6-diamino-9-(4-fluorobenzyl)-9H-purin-8-yl)-L-cysteinamide] was tested, and the “Activity value (GFP/actin of drug-treated cells relative to drug-untreated control)” value was 0.7.

same assay, conditions: 100 uM, 24 hours, 1 or less = degradation promoted

First: COc1ccc(Cn2c(SC[C@H](NC(C)=O)C(=O)NCCOCCOCCOCCOCCOCCCCCCCl)nc3c(=O)[nH]c(N)nc32)cc1 [Example 38, N^2-acetyl-S-(2-amino-9-(4-methoxybenzyl)-6-oxo-6,9-dihydro-1H-purin-8-yl)-N-(21-chloro-3,6,9,12,15-pentaoxahenicos-1-yl)-L-cysteinamide]
Second: Nc1nc2c(nc(C(=O)N3CCCCC3C(=O)NCCOCCOCCOCCOCCOCCCCCCCl)n2Cc2ccc(F)cc2)c(=O)[nH]1 (stereo not drawn) [Example 46, 1-((2-Amino-9-(4-fluorobenzyl)-6-oxo-6,9-dihydro-1H-purin-8-yl)carbonyl)-N-(21-chloro-3,6,9,12,15-pentaoxahenicos-1-yl)piperidine-2-carboxamide]
The “Activity value (GFP/actin of drug-treated cells relative to drug-untreated control)” value of the first is higher: 0.8 for the first, 0.2 for the second.

test system: EmGFP-HaloTag; assay: Test Example 2: HeLa cells transiently overexpressing EmGFP-HaloTag, Western blot GFP/actin (Testing Method B); format: cell-based; conditions: 1 uM, 24 hours, 1 or less = degradation promoted
Procedure: Test Example 2: Evaluation Using Cell Transiently Overexpressing EmGFP-HaloTag (Testing Method B)
as §1, with “cells” for “cells stably expressing EmGFP-HaloTag”, “hours. Cells overexpressing EmGFP-HaloTag were obtained by transfection with a plasmid pCMV-EmGFP-HaloTag encoding EmGFP-HaloTag. On the next day,” for “hours. Then,”, “Examples 8, 12, 16, 21” for “Examples 1”, “to 23, 28, 30” for “to 7, 9 to 11, 13 to 15, 17 to 20, 24 to 27, 29, 32 to 33, 36 to 42, 44 to 46”, “and 31)” for “and 56)”

Compared with Nc1nc2c(nc(NCCC(=O)NCCOCCOCCOCCOCCOCCCCCCCl)n2Cc2ccc(F)cc2)c(=O)[nH]1 [Example 8, N^3-(2-Amino-9-(4-fluorobenzyl)-6-oxo-6,9-dihydro-1H-purin-8-yl)-N-(21-chloro-3,6,9,12,15-pentaoxahenicos-1-yl)-β-alaninamide], Nc1nc2c(nc(CCCOCCOCCOCCOCCOCCOCCCCCCCl)n2Cc2ccc(F)cc2)c(=O)[nH]1 [Example 31, 2-Amino-8-(25-chloro-4,7,10,13,16,19-hexaoxapentacos-1-yl)-9-(4-fluorobenzyl)-1,9-dihydro-6H-purin-6-one] is lower in “Activity value (GFP/actin of drug-treated cells relative to drug-untreated control)” value: 0.7 for the first, 0.4 for the second.

Compared with CC(=O)N[C@@H](CSc1cn(Cc2ccc(F)cc2)c(=O)nc1N)C(=O)NCCOCCOCCOCCOCCOCCCCCCCl [Example 21, N^2-Acetyl-S-(4-amino-1-(4-fluorobenzyl)-2-oxo-1,2-dihydropyrimidin-5-yl)-N-(21-chloro-3,6,9,12,15-pentaoxahenicos-1-yl)-L-cysteinamide Trifluoroacetate], CC(=O)N[C@@H](CSc1nc2c(=O)n(C)c(N)nc2n1Cc1ccc(F)cc1)C(=O)NCCOCCOCCOCCOCCOCCCCCCCl [Example 30, N^2-Acetyl-S-(2-amino-9-(4-fluorobenzyl)-1-methyl-6-oxo-6,9-dihydro-1H-purin-8-yl)-N— (21-chloro-3,6,9,12,15-pentaoxahenicos-1-yl)-L-cysteinamide] is lower in “Activity value (GFP/actin of drug-treated cells relative to drug-untreated control)” value: 0.3 for the first, 0.2 for the second.

Going from CC(=O)N[C@@H](CSc1nc2c(=O)[nH]c(N)nc2n1Cc1cccc(F)c1)C(=O)NCCOCCOCCOCCOCCOCCCCCCCl [Example 23] to CC(=O)N[C@@H](CSc1nc2c(=O)[nH]c(N)nc2n1C1CCCCC1)C(=O)NCCOCCOCCOCCOCCOCCCCCCCl [Example 28, N^2-acetyl-S-(2-amino-9-cyclohexyl-6-oxo-6,9-dihydro-1H-purin-8-yl)-N-(21-chloro-3,6,9,12,15-pentaoxahenicos-1-yl)-L-cysteinamide], the “Activity value (GFP/actin of drug-treated cells relative to drug-untreated control)” value falls from 0.7 to 0.4.

same assay, conditions: 10 uM, 24 hours, 1 or less = degradation promoted

Compared with CC(=O)N[C@@H](CSc1nc2c(=O)[nH]c(N)nc2n1C1CCCC1)C(=O)NCCOCCOCCOCCOCCOCCCCCCCl [Example 12, N^2-Acetyl-S-(2-amino-9-cyclopentyl-6-oxo-6,9-dihydro-1H-purin-8-yl)-N-(21-chloro-3,6,9,12,15-pentaoxahenicos-1-yl)-L-cysteinamide], CC(=O)N[C@@H](CSc1nc2c(=O)[nH]c(N)nc2n1Cc1ccccc1F)C(=O)NCCOCCOCCOCCOCCOCCCCCCCl [Example 22, N^2-acetyl-S-(2-amino-9-(2-fluorobonzvl)-6-oxo-6,9-dihydro-1H-purin-8-yl)-N-(21-chloro-3,6,9,12,15-pentaoxahenicos-1-yl)-L-cysteinamide] is higher in “Activity value (GFP/actin of drug-treated cells relative to drug-untreated control)” value: 0.45 for the first, 0.7 for the second.

Nc1nc2c(nc(C#CCOCCOCCOCCOCCOCCOCCCCCCCl)n2Cc2ccc(F)cc2)c(=O)[nH]1 [Example 16, 2-Amino-8-(25-chloro-4,7,10,13,16,19-hexaoxapentacos-1-yn-1-yl)-9-(4-fluorobenzyl)-1,9-dihydro-6H-purin-6-one] was tested, and the “Activity value (GFP/actin of drug-treated cells relative to drug-untreated control)” value was 0.4.
